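In this assay, cells in 96-well plates receive the compound at five concentrations for 48 hours. Endpoints are linearly interpolated between the surrounding concentrations. Abbreviation: GI50, concentration required for 50% inhibition of growth. TGI denotes the concentration required for complete inhibition of growth.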
What was measured:
Test in all cases: NCI anticancer screen, dose series, 48 h
[1] = system: 786-0 renal
[2] = system: A549 NSCLC
[3] = system: ACHN renal
[4] = system: CAKI-1 renal
[5] = system: COLO 205 colon
[6] = system: EKVX NSCLC
[7] = system: HCC-2998 colon
[8] = system: HCT-116 colon
[9] = system: HL-60(TB) leukemia
[10] = system: HOP-62 NSCLC
[11] = system: HOP-92 NSCLC
[12] = system: HT29 colon
[13] = system: IGROV1 ovarian
[14] = system: K-562 leukemia
[15] = system: KM12 colon
[16] = system: KM20L2 colon
[17] = system: LOX IMVI melanoma
[18] = system: M14 melanoma
[19] = system: MALME-3M melanoma
[20] = system: MOLT-4 leukemia
[21] = system: NCI-H226 lung
[22] = system: NCI-H23 lung
[23] = system: NCI-H460 lung
[24] = system: OVCAR-3 ovarian
[25] = system: OVCAR-4 ovarian
[26] = system: OVCAR-5 ovarian
[27] = system: OVCAR-8 ovarian
[28] = system: RPMI-8226 leukemia
[29] = system: RXF 393 renal
[30] = system: SF-268 CNS
[31] = system: SF-295 CNS
[32] = system: SF-539 CNS
[33] = system: SK-MEL-2 melanoma
[34] = system: SK-MEL-28 melanoma
[35] = system: SK-MEL-5 melanoma
[36] = system: SK-OV-3 ovarian
[37] = system: SN12C renal
[38] = system: SNB-19 CNS
[39] = system: SW-620 colon
[40] = system: TK-10 renal
[41] = system: U251 CNS
[42] = system: UACC-257 melanoma
[43] = system: UACC-62 melanoma
[44] = system: UO-31 renal
[45] = system: CCRF-CEM leukemia
[46] = system: DLD-1 colon
[47] = system: DMS 114 small cell lung
[48] = system: HOP-18 NSCLC
[49] = system: LXFL 529 NSCLC
[50] = system: M19-MEL melanoma
[51] = system: NCI-H522 lung
[52] = system: SNB-75 CNS
[53] = system: SR leukemia
[54] = system: XF 498 CNS

For `N.N.O=P([O-])([O-])CN(CCN(CP(=O)([O-])[O-])CP(=O)([O-])[O-])CP(=O)([O-])[O-].[Pt+2]`, the GI50 [1] was > 100 µM, the TGI [1] was > 100 µM and the GI50 [2] was > 100 µM. For the same compound, the TGI [2] was > 100 µM, the GI50 [3] was > 100 µM and the TGI [3] was > 100 µM. The GI50 [4] was > 100 µM, the TGI [4] was > 100 µM and the GI50 [5] was > 100 µM. The TGI [5] was > 100 µM, the GI50 [6] was > 100 µM and the TGI [6] was > 100 µM. The GI50 [7] was > 100 µM, the TGI [7] was > 100 µM and the GI50 [8] was > 100 µM. For the same compound, the TGI [8] was > 100 µM, the GI50 [9] was > 100 µM and the TGI [9] was > 100 µM. The GI50 [10] was > 100 µM, the TGI [10] was > 100 µM and the GI50 [11] was > 100 µM. For the same compound, the TGI [11] was > 100 µM, the GI50 [12] was > 100 µM and the TGI [12] was > 100 µM. The GI50 [13] was > 100 µM, the TGI [13] was > 100 µM and the GI50 [14] was > 100 µM. For the same compound, the TGI [14] was > 100 µM, the GI50 [15] was > 100 µM and the TGI [15] was > 100 µM. For the same compound, the GI50 [16] was > 100 µM, the TGI [16] was > 100 µM and the GI50 [17] was > 100 µM. The TGI [17] was > 100 µM, the GI50 [18] was > 100 µM and the TGI [18] was > 100 µM. The GI50 [19] was > 100 µM, the TGI [19] was > 100 µM and the GI50 [20] was > 100 µM. For the same compound, the TGI [20] was > 100 µM, the GI50 [21] was > 100 µM and the TGI [21] was > 100 µM. The GI50 [22] was > 100 µM, the TGI [22] was > 100 µM and the GI50 [23] was > 100 µM. The TGI [23] was > 100 µM, the GI50 [24] was > 100 µM and the TGI [24] was > 100 µM. For the same compound, the GI50 [25] was > 100 µM, the TGI [25] was > 100 µM and the GI50 [26] was > 100 µM. The TGI [26] was > 100 µM, the GI50 [27] was > 100 µM and the TGI [27] was > 100 µM. For the same compound, the GI50 [28] was > 100 µM, the TGI [28] was > 100 µM and the GI50 [29] was > 100 µM. For the same compound, the TGI [29] was > 100 µM, the GI50 [30] was > 100 µM and the TGI [30] was > 100 µM. The GI50 [31] was > 100 µM, the TGI [31] was > 100 µM and the GI50 [32] was > 100 µM. The TGI [32] was > 100 µM, the GI50 [33] was > 100 µM and the TGI [33] was > 100 µM. The GI50 [34] was > 100 µM, the TGI [34] was > 100 µM and the GI50 [35] was > 100 µM. For the same compound, the TGI [35] was > 100 µM, the GI50 [36] was > 100 µM and the TGI [36] was > 100 µM. For the same compound, the GI50 [37] was > 100 µM, the TGI [37] was > 100 µM and the GI50 [38] was > 100 µM. For the same compound, the TGI [38] was > 100 µM, the GI50 [39] was > 100 µM and the TGI [39] was > 100 µM. The GI50 [40] was > 100 µM, the TGI [40] was > 100 µM and the GI50 [41] was > 100 µM. The TGI [41] was > 100 µM, the GI50 [42] was > 100 µM and the TGI [42] was > 100 µM. For the same compound, the GI50 [43] was > 100 µM, the TGI [43] was > 100 µM and the GI50 [44] was > 100 µM. The TGI [44] was > 100 µM.
For `COC(=O)N/N=C(\C(=O)Nc1cccc([N+](=O)[O-])c1)c1nc2ccc([N+](=O)[O-])cc2[nH]c1=O`, the TGI [1] was > 100 µM, the TGI [2] was > 100 µM and the TGI [3] was > 100 µM. For the same compound, the TGI [45] was > 100 µM, the TGI [5] was > 100 µM and the TGI [46] was > 100 µM. For the same compound, the TGI [47] was 40.1 µM, the TGI [6] was > 100 µM and the TGI [7] was > 100 µM. The TGI [8] was > 100 µM, the TGI [9] was > 100 µM and the TGI [48] was > 100 µM. For the same compound, the TGI [10] was 66.5 µM, the TGI [11] was > 100 µM and the TGI [12] was > 100 µM. The TGI [13] was > 100 µM, the TGI [14] was > 100 µM and the TGI [15] was > 100 µM. The TGI [16] was 67.3 µM, the TGI [17] was > 100 µM and the TGI [49] was > 100 µM. For the same compound, the TGI [18] was > 100 µM, the TGI [50] was > 100 µM and the TGI [19] was > 100 µM. For the same compound, the TGI [20] was > 100 µM, the TGI [21] was > 100 µM and the TGI [22] was > 100 µM. For the same compound, the TGI [23] was > 100 µM, the TGI [51] was 96.6 µM and the TGI [24] was > 100 µM. For the same compound, the TGI [25] was > 100 µM, the TGI [26] was > 100 µM and the TGI [27] was > 100 µM. For the same compound, the TGI [28] was > 100 µM, the TGI [29] was > 100 µM and the TGI [30] was 13.3 µM. The TGI [31] was > 100 µM, the TGI [32] was > 100 µM and the TGI [34] was > 100 µM. For the same compound, the TGI [35] was > 100 µM, the TGI [36] was > 100 µM and the TGI [37] was > 100 µM. For the same compound, the TGI [38] was > 100 µM, the TGI [52] was > 100 µM and the TGI [53] was > 100 µM. The TGI [39] was > 100 µM, the TGI [40] was > 100 µM and the TGI [42] was > 100 µM. The TGI [43] was 58.5 µM, the TGI [44] was > 100 µM and the TGI [54] was > 100 µM.

Reference: PubChem BioAssay (NCI)
